Data: patent publication US20230278972A1, “SUBSTITUTED HALOALKYL SULFONANILIDE HERBICIDES” (FMC Corporation, priority 2020, published 2023)

How the values were obtained:
Format in all cases: in vivo
[1] = system: ragweed (common ragweed, Ambrosia artemisiifolia); assay: Test A postemergence, ragweed; conditions: Postemergence, 0 to 100 scale (0 no effect, 100 complete control)
Method in brief: (§1)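 Postemergence ratings come from foliar sprays onto one- to two-leaf plants of 2 to 10 cm grown in loam/sand; preemergence ratings come from a directed spray onto the soil of newly seeded pots. Formulation was a surfactant-containing non-phytotoxic solvent blend.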

[2] = system: ragweed (common ragweed, Ambrosia artemisiifolia); assay: Test A preemergence, ragweed; conditions: Preemergence; for Ragweed plant response rating: 125 g ai/ha, visual injury on 0 to 100 scale (0 no effect, 100 complete control), approximately 10 days; for Plant response rating, Ragweed: 0 to 100 scale (0 no effect, 100 complete control)
Method in brief: as §1

[3] = system: wheat (Triticum aestivum); assay: Test A postemergence, wheat; conditions: Postemergence, 0 to 100 scale (0 no effect, 100 complete control)
Method in brief: (§2)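 Directed soil spray at planting gave the preemergence treatment, while foliar application to one- to two-leaf seedlings (2–10 cm) gave the postemergence one; pots held a loam and sand mixture and chemicals were carried in a non-phytotoxic solvent with surfactant.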

[4] = system: corn (Zea mays); assay: Test A postemergence, corn; conditions: Postemergence, 0 to 100 scale (0 no effect, 100 complete control)
Method in brief: as §1

[5] = system: blackgrass (Alopecurus myosuroides); assay: Test A postemergence, blackgrass; conditions: Postemergence, 0 to 100 scale (0 no effect, 100 complete control)
Method in brief: as §1

[6] = system: galium (catchweed bedstraw, Galium aparine); assay: Test A postemergence, galium; conditions: Postemergence, 0 to 100 scale (0 no effect, 100 complete control)
Method in brief: as §2

[7] = system: pigweed (Amaranthus retroflexus); assay: Test A preemergence, pigweed; conditions: for Pigweed plant response rating: 125 g ai/ha, visual injury on 0 to 100 scale (0 no effect, 100 complete control), approximately 10 days; for Plant response rating, Pigweed: 0 to 100 scale (0 no effect, 100 complete control)
Method in brief: as §2

[8] = system: barnyardgrass (Echinochloa crus-galli); assay: Test A preemergence, barnyardgrass; conditions: Preemergence; for Barnyardgrass plant response rating: 125 g ai/ha, visual injury on 0 to 100 scale (0 no effect, 100 complete control), approximately 10 days; for Plant response rating, Barnyardgrass: 0 to 100 scale (0 no effect, 100 complete control)
Method in brief: as §1

[9] = system: Foxtail, Giant (giant foxtail, Setaria faberi); assay: Test A preemergence, Foxtail, Giant; conditions: Preemergence; for Foxtail, Giant plant response rating: 125 g ai/ha, visual injury on 0 to 100 scale (0 no effect, 100 complete control), approximately 10 days; for Plant response rating, Foxtail, Giant: 0 to 100 scale (0 no effect, 100 complete control)
Method in brief: as §1

[10] = system: barnyardgrass (Echinochloa crus-galli); assay: Test A postemergence, barnyardgrass; conditions: Postemergence, 0 to 100 scale (0 no effect, 100 complete control)
Method in brief: as §2

[11] = system: kochia (Bassia scoparia); assay: Test A postemergence, kochia; conditions: Postemergence, 0 to 100 scale (0 no effect, 100 complete control)
Method in brief: as §1

[12] = system: Foxtail, Giant (giant foxtail, Setaria faberi); assay: Test A postemergence, Foxtail, Giant; conditions: Postemergence, 0 to 100 scale (0 no effect, 100 complete control)
Method in brief: as §1

[13] = system: Ryegrass, Italian (Italian ryegrass, Lolium multiflorum); assay: Test A postemergence, Ryegrass, Italian; conditions: Postemergence, 0 to 100 scale (0 no effect, 100 complete control)
Method in brief: as §1

[14] = system: pigweed (Amaranthus retroflexus); assay: Test A postemergence, pigweed; conditions: Postemergence, 0 to 100 scale (0 no effect, 100 complete control)
Method in brief: as §1

[15] = system: kochia (Bassia scoparia); assay: Test A preemergence, kochia; conditions: Preemergence; for Kochia plant response rating: 125 g ai/ha, visual injury on 0 to 100 scale (0 no effect, 100 complete control), approximately 10 days; for Plant response rating, Kochia: 0 to 100 scale (0 no effect, 100 complete control)
Method in brief: as §1

[16] = system: Ryegrass, Italian (Italian ryegrass, Lolium multiflorum); assay: Test A preemergence, Ryegrass, Italian; conditions: Preemergence; for Ryegrass, Italian plant response rating: 125 g ai/ha, visual injury on 0 to 100 scale (0 no effect, 100 complete control), approximately 10 days; for Plant response rating, Ryegrass, Italian: 0 to 100 scale (0 no effect, 100 complete control)
Method in brief: as §1

[17] = 125 g ai/ha, visual injury approx. 10 days
[18] = 500 g ai/ha, visual injury, approx. 10 days
[19] = 31 g ai/ha, visual injury, approx. 10 days

Row | SMILES | Plant response rating, Ragweed [1, 17] | Plant response rating, Ragweed [1, 18] | Ragweed plant response rating [2] | Plant response rating, Ragweed ([2]; 500 g ai/ha) | Plant response rating, Wheat [3, 17] | Plant response rating, Wheat [3, 18] | Plant response rating, Corn [4, 17] | Plant response rating, Corn [4, 18] | Plant response rating, Blackgrass [5, 17] | Plant response rating, Galium [6, 17] | Pigweed plant response rating [7] | Barnyardgrass plant response rating [8] | Foxtail, Giant plant response rating [9] | Plant response rating, Barnyardgrass [10, 17] | Plant response rating, Kochia [11, 17] | Plant response rating, Foxtail, Giant [12, 17] | Plant response rating, Ryegrass, Italian [13, 17] | Plant response rating, Pigweed [14, 17] | Kochia plant response rating [15] | Ryegrass, Italian plant response rating [16] | also measured
1 | CCn1cc(-c2cc(NS(=O)(=O)C(F)(F)F)c(C)cc2C)c(=O)n(C)c1=O [Compound 32] | 30 | 60 | 0 | 50 | 70 | 70 | 10 | 80 | 90 | 70 | 20 | 100 | 100 | 90 | 20 | 90 | 80 | 10 | 60 | 100 | Plant response rating, Blackgrass [5, 18]: 90; Plant response rating, Galium [6, 18]: 90; Plant response rating, Pigweed ([7]; 500 g ai/ha): 60; Plant response rating, Barnyardgrass ([8]; 500 g ai/ha): 100; Plant response rating, Foxtail, Giant ([9]; 500 g ai/ha): 100; Plant response rating, Barnyardgrass [10, 18]: 90; Plant response rating, Kochia [11, 18]: 40; Plant response rating, Foxtail, Giant [12, 18]: 90; Plant response rating, Ryegrass, Italian [13, 18]: 90; Plant response rating, Pigweed [14, 18]: 20; Plant response rating, Kochia ([15]; 500 g ai/ha): 90; Plant response rating, Ryegrass, Italian ([16]; 500 g ai/ha): 100
2 | COc1cc(-c2cc(N(S(=O)(=O)C(F)(F)F)S(=O)(=O)C(F)(F)F)c(C)cc2C)c(=O)n(C)n1 [Compound 35] | 0 | 40 | 20 | 80 | 0 | 40 | 0 | 0 | 20 | 60 | 50 | 70 | 60 | 0 | 0 | 0 | 0 | 30 | 0 | 40 | Plant response rating, Blackgrass [5, 18]: 30; Plant response rating, Galium [6, 18]: 70; Plant response rating, Pigweed ([7]; 500 g ai/ha): 80; Plant response rating, Barnyardgrass ([8]; 500 g ai/ha): 90; Plant response rating, Foxtail, Giant ([9]; 500 g ai/ha): 90; Plant response rating, Barnyardgrass [10, 18]: 80; Plant response rating, Kochia [11, 18]: 10; Plant response rating, Foxtail, Giant [12, 18]: 10; Plant response rating, Ryegrass, Italian [13, 18]: 40; Plant response rating, Pigweed [14, 18]: 60; Plant response rating, Kochia ([15]; 500 g ai/ha): 20; Plant response rating, Ryegrass, Italian ([16]; 500 g ai/ha): 50
3 | CSc1cc(-c2cc(NS(=O)(=O)C(F)(F)F)c(C)cc2C)c(=O)n(C)n1 [Compound 36] | 0 | – | 0 | – | 50 | – | 0 | – | 0 | 40 | 10 | 50 | 80 | 0 | 20 | 0 | 10 | 30 | 0 | 60 | Plant response rating, Ragweed ([1]; 31 g ai/ha): 0; Plant response rating, Ragweed [2, 19]: 0; Plant response rating, Wheat ([3]; 31 g ai/ha): 0; Plant response rating, Corn ([4]; 31 g ai/ha): 0; Plant response rating, Blackgrass ([5]; 31 g ai/ha): 0; Plant response rating, Galium ([6]; 31 g ai/ha): 20; Plant response rating, Pigweed [7, 19]: 0; Plant response rating, Barnyardgrass [8, 19]: 0; Plant response rating, Foxtail, Giant [9, 19]: 20; Plant response rating, Barnyardgrass ([10]; 31 g ai/ha): 0; Plant response rating, Kochia ([11]; 31 g ai/ha): 10; Plant response rating, Foxtail, Giant ([12]; 31 g ai/ha): 0; Plant response rating, Ryegrass, Italian ([13]; 31 g ai/ha): 20; Plant response rating, Pigweed ([14]; 31 g ai/ha): 0; Plant response rating, Kochia [15, 19]: 0; Plant response rating, Ryegrass, Italian [16, 19]: 0
